Consider one molecule from paper PMC8237267 (Journal of Medicinal Chemistry, 2021).

The target of one data set is T1, HDAC10 (Homo sapiens, UniProt Q969S8).
T1 construct: The full-length human HDACs were recombinantly expressed and purified from SF9 insect cells; host or cells: SF9 insect cells
Description: HDAC EMSA activity assay (Nanosyn). Format: biochemical. On the procedure: (§1) The full-length human HDACs were recombinantly expressed and purified from SF9 insect cells. All compounds were serially prediluted in DMSO from a top concentration of 10 or 1 μM and introduced into the 384-well plates through an acoustic dispenser (Labcyte550) into the reaction buffer (100 mM HEPES, pH 7.5, 25 mM KCl, 0.1% BSA, 0.01% Triton X-100, and enzyme). The total concentration of DMSO was 1% in all wells. The deacetylation reaction was initiated by introduction of a FAM-labeled acetylated peptide substrate. The reaction was monitored through the change in the relative fluorescence intensity of the substrate and product peaks. The activity was determined as the product sum ratio (PSR): P/(S + P), where P = product peak height and S = substrate peak height. […] Inhibition curves (Pinh vs inhibitor concentration) were fitted by a four-parameter sigmoid dose–response model using XLfit software (IDBS) to determine the IC50 values.
Background: A gel shift assay detects complexes by their altered migration in electrophoresis.

The target of another data set is T2, HDAC9 (Homo sapiens, UniProt Q9UKV0).
T2 construct: The full-length human HDACs were recombinantly expressed and purified from SF9 insect cells; host or cells: SF9 insect cells
T2 sequence (Q9UKV0 whole entry): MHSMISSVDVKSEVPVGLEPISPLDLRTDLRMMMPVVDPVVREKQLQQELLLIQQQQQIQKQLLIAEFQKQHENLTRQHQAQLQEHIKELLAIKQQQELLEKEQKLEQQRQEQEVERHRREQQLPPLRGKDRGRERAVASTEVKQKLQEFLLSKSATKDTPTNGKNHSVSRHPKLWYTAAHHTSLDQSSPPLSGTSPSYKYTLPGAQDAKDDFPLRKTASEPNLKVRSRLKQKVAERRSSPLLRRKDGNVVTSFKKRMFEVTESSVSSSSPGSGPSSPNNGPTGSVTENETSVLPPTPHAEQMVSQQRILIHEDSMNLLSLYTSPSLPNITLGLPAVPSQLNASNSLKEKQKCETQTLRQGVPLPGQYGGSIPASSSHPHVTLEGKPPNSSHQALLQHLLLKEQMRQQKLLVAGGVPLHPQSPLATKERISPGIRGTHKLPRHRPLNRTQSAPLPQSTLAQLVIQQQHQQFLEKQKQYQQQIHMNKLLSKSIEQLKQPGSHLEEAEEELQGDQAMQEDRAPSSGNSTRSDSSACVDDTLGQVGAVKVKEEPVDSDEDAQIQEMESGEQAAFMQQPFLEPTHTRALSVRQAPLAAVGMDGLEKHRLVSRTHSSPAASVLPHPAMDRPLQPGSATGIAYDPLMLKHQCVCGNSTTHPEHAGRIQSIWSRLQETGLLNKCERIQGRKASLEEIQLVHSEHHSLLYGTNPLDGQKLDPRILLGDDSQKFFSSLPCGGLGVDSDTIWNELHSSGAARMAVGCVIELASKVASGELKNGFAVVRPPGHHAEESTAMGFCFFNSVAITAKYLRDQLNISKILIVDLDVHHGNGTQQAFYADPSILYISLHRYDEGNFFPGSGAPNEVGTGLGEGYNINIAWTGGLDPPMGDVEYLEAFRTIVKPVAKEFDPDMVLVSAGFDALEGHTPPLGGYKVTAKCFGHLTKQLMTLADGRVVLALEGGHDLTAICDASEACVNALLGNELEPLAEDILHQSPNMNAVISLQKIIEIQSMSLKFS
Description: HDAC EMSA activity assay (Nanosyn). Format: biochemical. On the procedure:
as §1

A further data set concerns the target T3, HDAC1 (Homo sapiens, UniProt Q13547).
T3 construct: The full-length human HDACs were recombinantly expressed and purified from SF9 insect cells; host or cells: SF9 insect cells
The data set can be described thus: HDAC EMSA activity assay (Nanosyn). Type of data set: biochemical. On the procedure: as §1

The target of a further data set is T4, HDAC7 (Homo sapiens, UniProt Q8WUI4).
T4 construct: The full-length human HDACs were recombinantly expressed and purified from SF9 insect cells; host or cells: SF9 insect cells
T4 sequence (Q8WUI4 whole entry): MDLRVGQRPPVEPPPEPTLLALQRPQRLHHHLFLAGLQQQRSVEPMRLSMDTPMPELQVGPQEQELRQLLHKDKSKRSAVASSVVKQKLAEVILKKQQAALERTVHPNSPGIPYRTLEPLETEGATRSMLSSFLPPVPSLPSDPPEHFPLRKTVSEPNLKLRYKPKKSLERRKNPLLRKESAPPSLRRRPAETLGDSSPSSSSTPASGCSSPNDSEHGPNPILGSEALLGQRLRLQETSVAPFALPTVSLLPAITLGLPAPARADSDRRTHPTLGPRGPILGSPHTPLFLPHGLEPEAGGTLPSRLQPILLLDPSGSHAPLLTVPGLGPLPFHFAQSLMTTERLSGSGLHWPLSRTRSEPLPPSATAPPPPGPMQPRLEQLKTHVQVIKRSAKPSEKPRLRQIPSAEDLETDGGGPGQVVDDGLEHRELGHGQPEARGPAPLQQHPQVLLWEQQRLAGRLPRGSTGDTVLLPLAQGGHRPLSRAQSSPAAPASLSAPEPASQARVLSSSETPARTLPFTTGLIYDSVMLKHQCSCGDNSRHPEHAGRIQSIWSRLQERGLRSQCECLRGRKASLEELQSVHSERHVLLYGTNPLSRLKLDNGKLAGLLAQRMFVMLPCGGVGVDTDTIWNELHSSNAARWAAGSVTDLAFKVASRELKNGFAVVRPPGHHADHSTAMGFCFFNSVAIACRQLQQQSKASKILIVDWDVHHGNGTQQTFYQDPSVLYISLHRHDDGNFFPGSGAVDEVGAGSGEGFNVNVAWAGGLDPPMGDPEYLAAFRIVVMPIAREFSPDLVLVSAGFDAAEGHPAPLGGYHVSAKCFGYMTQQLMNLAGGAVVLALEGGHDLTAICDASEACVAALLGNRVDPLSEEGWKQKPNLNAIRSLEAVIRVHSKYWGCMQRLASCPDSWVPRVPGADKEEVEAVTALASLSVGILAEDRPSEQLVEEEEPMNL
The data set can be described thus: HDAC EMSA activity assay (Nanosyn). Type of data set: biochemical. On the procedure: as §1

The target of the next data set is T5, HDAC5 (Homo sapiens, UniProt Q9UQL6).
T5 construct: The full-length human HDACs were recombinantly expressed and purified from SF9 insect cells; host or cells: SF9 insect cells
T5 sequence (Q9UQL6 whole entry): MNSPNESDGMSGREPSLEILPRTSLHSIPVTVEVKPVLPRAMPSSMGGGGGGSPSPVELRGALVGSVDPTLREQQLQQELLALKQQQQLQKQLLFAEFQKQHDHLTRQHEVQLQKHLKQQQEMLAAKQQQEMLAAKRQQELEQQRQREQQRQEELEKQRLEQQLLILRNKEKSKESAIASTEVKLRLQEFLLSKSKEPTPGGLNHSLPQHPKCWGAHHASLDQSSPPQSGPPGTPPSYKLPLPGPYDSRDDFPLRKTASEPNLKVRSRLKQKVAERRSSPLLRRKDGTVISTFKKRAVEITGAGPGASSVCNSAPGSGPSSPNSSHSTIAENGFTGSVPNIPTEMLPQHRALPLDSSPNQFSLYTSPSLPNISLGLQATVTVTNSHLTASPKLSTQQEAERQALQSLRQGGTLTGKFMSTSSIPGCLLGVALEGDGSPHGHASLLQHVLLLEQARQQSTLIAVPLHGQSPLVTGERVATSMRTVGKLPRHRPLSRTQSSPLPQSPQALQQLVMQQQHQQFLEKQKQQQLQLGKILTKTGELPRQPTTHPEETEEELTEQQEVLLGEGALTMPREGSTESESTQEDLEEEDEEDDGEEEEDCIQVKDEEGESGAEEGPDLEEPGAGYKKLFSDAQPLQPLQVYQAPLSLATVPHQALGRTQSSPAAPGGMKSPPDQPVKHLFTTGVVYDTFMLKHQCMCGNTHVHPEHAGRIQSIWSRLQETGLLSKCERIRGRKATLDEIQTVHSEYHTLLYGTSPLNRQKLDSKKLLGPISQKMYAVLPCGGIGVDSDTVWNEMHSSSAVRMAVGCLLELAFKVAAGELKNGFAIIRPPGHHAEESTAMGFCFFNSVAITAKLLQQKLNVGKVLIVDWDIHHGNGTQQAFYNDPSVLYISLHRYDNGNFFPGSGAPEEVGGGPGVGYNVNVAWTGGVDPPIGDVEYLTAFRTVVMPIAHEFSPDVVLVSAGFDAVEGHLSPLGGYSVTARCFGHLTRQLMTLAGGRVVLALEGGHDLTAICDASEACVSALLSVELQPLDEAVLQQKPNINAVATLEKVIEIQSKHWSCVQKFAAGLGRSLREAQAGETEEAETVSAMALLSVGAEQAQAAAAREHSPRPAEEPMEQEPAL
Description: HDAC EMSA activity assay (Nanosyn). Format: biochemical. On the procedure: as §1

The next data set concerns the target T6, HDAC11 (Homo sapiens, UniProt Q96DB2).
T6 construct: The full-length human HDACs were recombinantly expressed and purified from SF9 insect cells; host or cells: SF9 insect cells
T6 sequence (Q96DB2 1-347): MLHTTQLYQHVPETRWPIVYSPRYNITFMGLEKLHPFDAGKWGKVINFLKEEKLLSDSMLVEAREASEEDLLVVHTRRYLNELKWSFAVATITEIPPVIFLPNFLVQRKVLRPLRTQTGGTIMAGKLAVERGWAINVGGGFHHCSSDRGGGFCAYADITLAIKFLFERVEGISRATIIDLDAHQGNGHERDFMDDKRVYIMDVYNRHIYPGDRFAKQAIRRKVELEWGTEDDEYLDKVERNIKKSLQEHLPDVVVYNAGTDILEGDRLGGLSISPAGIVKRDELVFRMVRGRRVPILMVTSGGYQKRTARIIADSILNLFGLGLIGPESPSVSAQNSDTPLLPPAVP
The data set can be described thus: HDAC EMSA activity assay (Nanosyn). Format: biochemical. The note with it: read-out: IC50 HDAC11.

The test system of data set [1] is primary T-PLL patient samples. Description: Drug combination synergy in primary T-PLL patient samples. Type of data set: cell-based, human. The text has this:
Primary T-PLL cells were isolated from peripheral blood (PB) of 10 T-PLL patients. All patients were diagnosed according to WHO criteria based on clinical features, immunophenotyping (flow cytometry and histochemisty; including TCL1 expression), and FISH/karyotyping.[71],[72] Samples were obtained from patients under IRB-approved protocols following written informed consent according to the Declaration of Helsinki. Collection and use of patient material have been approved for research purpose by the ethics committee of the University Hospital of Cologne (EudraCT-Nr.: #2008-001421-34 and AZ11-319) and Helsinki (303/13/03/01/2011).
PB mononuclear cells (PBMCs) of T-PLL samples were obtained by density gradient centrifugation (Histopaque; Sigma-Aldrich). All drug screening in primary T-PLL patient samples were conducted as previously described.[34],[73]

In a further data set the test system is Mac1. The data set can be described thus: Cytotoxicity assay (Cell Titer-Blue, 72 h). Format: cell-based. The note with it: ALK- ALCL; one representative of three experiments; read-out: IC50 (heat map) Mac1. On the procedure: (§2) The PTCL cell lines, KHYG-1, NK-92, SNK6, DERL-2, Mac1, 1305 Myla, Hut78, SU-DHL-1 or T-ALL cell lines SUP-T11, DND-41, and MOLT4 were maintained in RPMI-1640 supplemented with 10% FBS, 0.06 g/L penicillin/0.1 g/L streptomycin (Pen/Strep, Gibco), and 2 mM L-glutamine (Gibco). Culture media of KHYG-1, NK-92, SNK6, and DERL-2 cells was additionally supplemented with 2.5 ng/mL recombinant human IL-2 (ImmunoTools GmbH, Germany). The authenticity of PTCL cell lines was confirmed by analysis of highly polymorphic short tandem repeat loci (STR) using the PowerPlex 16 HS System (Promega; performed by Microsynth AG, Switzerland).
(§3) Cells were plated in 96-well flat-bottom sterile culture plates with low-evaporation lids (Costar #3997). The inhibitors and a vehicle control (0.5% DMSO) were added to the cells following 24 h. After 72 h, Cell Titer-Blue (Promega #G808A) was added to each well (20 μL), and the fluorescence was measured at 560/590 nm using a Cytation S63 spectrophotometer (BioTek) or a GloMax Discover Microplate Reader (Promega, Madison, WI, USA). GraphPad Prism 6.0 (GraphPad Software Inc.) was used to determine the IC50 values.
Background: Alamar Blue is a resazurin reagent that responds to reducing activity.

A further data set concerns Hut78. Description: Cytotoxicity assay (Cell Titer-Blue, 72 h). Format: cell-based. Particulars: Homo sapiens, CTCL, one representative of three experiments, read-out: IC50 (heat map) Hut78. On the procedure: as §2, §3
Data set [2] is described as follows: In vitro stability in mouse hepatocytes. Format: in vitro ADME. On the procedure:
The inhibitors (and controls) were formulated to concentrations of 100 μM in 50% acetonitrile/50% water. The medium (William’s E Medium supplemented with GlutaMAX) and hepatocyte thawing medium were allowed to reach room temperature and the hepatocytes and thawing medium and centrifuged at 100 g for 10 min. The supernatant was removed, and hepatocytes resuspended in the incubation medium (∼1.5 × 10^6 cells/mL). The cells were diluted to 0.5 × 10^6 viable cells/mL. A volume of 198 μL of hepatocytes was transferred to a 96-well noncoated plate and incubated at 37 °C for 10 min. Following this, 2 μL of the 100 μM test compounds or positive control was transferred into respective wells to start the reaction. At different time points (0, 15, 30, 60, 90, and 120 min), 25 μL aliquots were mixed with 6 volumes (150 μL) of acetonitrile containing internal standard, IS (100 nM alprazolam, 200 nM labetalol, 200 nM caffeine, and 200 nM diclofenac) to terminate the reaction. Samples were vortexed for 5 min and centrifuged for 45 min at 3220g, diluted by ultrapure water, followed by LC/MS/MS analysis. The in vitro half-life (T1/2) was determined by regression analysis of the percent parent disappearance vs time curve (T1/2 = 0.693/k) using Microsoft Excel.

Where [3] appears, read: read-out: Stability in mouse hepatocytes t1/2.

T1 sequence (Q969S8 whole entry): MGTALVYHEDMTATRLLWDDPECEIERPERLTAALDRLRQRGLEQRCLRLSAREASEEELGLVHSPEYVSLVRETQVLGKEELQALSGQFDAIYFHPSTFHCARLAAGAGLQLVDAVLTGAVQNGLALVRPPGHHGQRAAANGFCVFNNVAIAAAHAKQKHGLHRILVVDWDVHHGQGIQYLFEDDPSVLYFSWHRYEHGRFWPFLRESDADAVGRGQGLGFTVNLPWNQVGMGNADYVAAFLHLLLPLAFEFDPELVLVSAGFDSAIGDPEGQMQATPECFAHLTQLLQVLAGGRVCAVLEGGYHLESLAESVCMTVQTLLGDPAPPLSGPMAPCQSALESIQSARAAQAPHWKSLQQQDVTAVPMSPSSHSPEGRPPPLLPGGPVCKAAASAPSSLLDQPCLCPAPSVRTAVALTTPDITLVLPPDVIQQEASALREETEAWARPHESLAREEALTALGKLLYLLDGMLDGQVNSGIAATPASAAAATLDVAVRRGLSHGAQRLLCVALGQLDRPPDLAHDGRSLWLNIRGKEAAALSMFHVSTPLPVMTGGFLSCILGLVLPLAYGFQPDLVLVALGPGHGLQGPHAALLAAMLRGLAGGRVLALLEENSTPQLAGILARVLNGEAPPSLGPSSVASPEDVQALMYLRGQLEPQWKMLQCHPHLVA
T3 sequence (Q13547 whole entry): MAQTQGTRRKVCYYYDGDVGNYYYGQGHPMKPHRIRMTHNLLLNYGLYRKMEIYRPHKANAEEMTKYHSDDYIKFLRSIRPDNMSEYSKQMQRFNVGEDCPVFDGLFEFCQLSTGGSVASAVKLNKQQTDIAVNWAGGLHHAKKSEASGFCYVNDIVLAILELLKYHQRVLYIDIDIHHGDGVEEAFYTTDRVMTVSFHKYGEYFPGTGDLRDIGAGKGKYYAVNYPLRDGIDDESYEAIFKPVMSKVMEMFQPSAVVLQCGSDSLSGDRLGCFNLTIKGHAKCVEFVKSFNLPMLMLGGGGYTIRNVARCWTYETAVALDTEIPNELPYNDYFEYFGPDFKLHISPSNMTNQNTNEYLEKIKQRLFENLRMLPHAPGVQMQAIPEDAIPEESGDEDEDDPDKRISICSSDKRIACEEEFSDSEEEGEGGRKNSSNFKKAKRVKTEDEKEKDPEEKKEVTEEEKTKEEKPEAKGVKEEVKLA

Regarding `O=C(NO)c1ccc(CN(C2CC2)S(=O)(=O)c2cc(F)c(F)c(F)c2F)cc1` [Compound 14, 4-(((N-Cyclopropyl-2,3,4,5-tetrafluorophenyl)sulfonamido)methyl)-N-hydroxybenzamide], the IC50 against HDAC10, against HDAC9, against HDAC1, on HDAC7, on HDAC5 and on HDAC11 was more than 1000 nM each time. Moreover, the IC50 (as a rule, the concentration that gives 50% inhibition) with Mac1 amounted to 9600 nM; with Hut78, 16200 nM. In addition, the “combination with idasanutlin, bendamustine and venetoclax” value in data set [1] is recorded as “All combinations revealed synergistic relationships in patient samples”. Moreover, the hepatocyte CLint (as a rule, the capacity of the preparation to metabolise the compound, expressed as a volume cleared per time) at 2 h, 1 μM in [2] was found to be 37.6 ± 0.6 µL/min/1e6 cells. Also, the half-life at 1 μM in data set [2] (setting [3]) is 37 min. Further, the half-life at 2 h, 1 μM in data set [2] (setting [3]) is 36.9 ± 0.59 min.
